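Five concentrations, 48 hours, 96-well plates. Here, GI50 denotes the concentration required for 50% inhibition of growth. TGI: total growth inhibition.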

The record followed here is PubChem BioAssay (NCI).

Assay in all cases: inhibition of tumour cell growth, NCI panel, 48 h
In assay [1] the test system is PC-3 prostate.
Assay [2] concerns MDA-N.
Assay [3] deals with NCI/ADR-RES ovarian.
For assay [4], the system named is 786-0 renal.
The subject of assay [5] is EKVX NSCLC.
Assay [6] deals with MCF7 breast.
For assay [7], the system named is OVCAR-8 ovarian.
Assay [8] relates to SK-MEL-28 melanoma.
Assay [9] deals with SNB-19 CNS.
Assay [10] deals with UO-31 renal.
In assay [11] the test system is HOP-92 NSCLC.

Take `CC1(C)Oc2ccc3c(=O)cc(-c4ccccc4)oc3c2C1C(=O)O` (stereo not given): the TGI in [1], in assay [2], in assay [3], in assay [4], in [5] and in assay [6] was greater than 100 µM each time. Further, the TGI in assay [7] was greater than 100 µM.
As to `Cc1c2cccc-2ccc2c3ccccc3n(C(=O)c3ccc(Cl)cc3)c12`, the TGI in assay [8], in [9], in assay [10], in [1], in assay [11] and in assay [3] was greater than 100 µM throughout. The TGI in [4], in [5], in assay [6] and in assay [7] was greater than 100 µM throughout.
Regarding `Clc1ccc(C2=CCN3CC=C(c4ccc(Cl)cc4)C23)cc1`, the TGI in assay [8] is 28 µM; in [9], 31.6 µM; in assay [10] it was 20 µM; in [2] it was 22.7 µM; in [3], 26.9 µM; in assay [4], 24.1 µM. Also, the results for the TGI in [5], in assay [6] and in [7] were 31.6 µM, 28.6 µM and 29.4 µM, respectively.
For the compound `N/C(=N\N=C\c1ncccc1O)NO`, the TGI in [8] was greater than 100 µM; in [9], 98.9 µM; in assay [10] it was greater than 86.2 µM; in assay [11], greater than 100 µM; in [3], greater than 85.5 µM; in assay [5], greater than 100 µM. Besides, the TGI in assay [6] and in assay [7] was greater than 100 µM throughout.
With `O=C(O)/C=C\C(=O)Nn1c(Cc2ccc(Cl)cc2)n[nH]c1=O`, the TGI in [1], in assay [2], in assay [3], in assay [4], in assay [5] and in assay [6] was greater than 100 µM throughout. The TGI in assay [7] was greater than 100 µM.
With `O=c1c2ccccc2nc2ccc3c(Cl)[nH][nH]c3c12`, the TGI in [8] is greater than 100 µM; in assay [9], greater than 100 µM; in assay [10], greater than 92.2 µM; in assay [11] it was greater than 100 µM; in assay [4], greater than 100 µM; in assay [5], greater than 100 µM. The TGI in assay [7] is greater than 100 µM.
Regarding `Cc1c2ccncc2c(C)c2c1[nH]c1ccc(OCCN(C)C)cc12`, the TGI in assay [8] was 2.01 µM; in assay [9] it was 0.958 µM; in [10], 1.75 µM; in [11], 1.62 µM; in assay [3] it was 0.348 µM; in assay [5], 1.51 µM. For the same compound, the TGI in [6] turned out to be 0.785 µM; in [7], 0.543 µM.
Turning to `Cc1ccc(S(=O)(=O)NC(=O)C2=C3SCCN3C(=O)N(S(=O)(=O)c3ccc(C)cc3)C2c2ccccc2)cc1` (stereo not given), the TGI in assay [8], in [9], in assay [10], in assay [1], in assay [11] and in assay [3] was greater than 100 µM throughout. For the same compound, the TGI in [4] is greater than 100 µM; in assay [5], greater than 100 µM; in [6] it was 90.7 µM; in assay [7], greater than 100 µM.
Consider `COc1ccccc1C1C(C#N)=C(N)Oc2n[nH]c(C)c21` (stereo not given), for which the GI50 in [8] is greater than 100 µM; in [9], greater than 100 µM; in assay [10] it was greater than 100 µM; in [11], 41.2 µM; in assay [3], greater than 100 µM; in assay [5] it was greater than 100 µM. Further, the GI50 in [6] and in [7] was greater than 100 µM each time. The TGI in assay [8], in assay [9], in assay [10], in assay [11], in [3] and in [5] was greater than 100 µM throughout. Further, the TGI in assay [6] and in assay [7] was greater than 100 µM throughout.
Turning to `COc1nc(C#CC2CCCCC2)nc(OC)n1`, the TGI was found to be 32.8 µM in [8]; 43.6 µM in [9]; 12.2 µM in [10]; 16.3 µM in [1]; 25.2 µM in [2]; 4.59 µM in assay [3]. In addition, the TGI stood at 7.77 µM in assay [4], 32.6 µM in [5], 14.9 µM in [6] and 3.44 µM in assay [7].
`CC1=CCC[C@H]2[C@](C)(CC3=CC(=O)C(SCC(C)C)=CC3=O)[C@@H](C)CC[C@]12C`: the TGI in assay [8] was 32.5 µM; in [9], 34.6 µM; in assay [10], 25.5 µM; in assay [1], 30.9 µM; in [11], 17.9 µM; in assay [3], 38.8 µM. In addition, the TGI was found to be 27.2 µM in [4], 31 µM in assay [5], 37.7 µM in assay [6] and 26.1 µM in [7].
As for `O=c1[nH]c(=O)n(C2OC(CO)C(O)C2O)cc1OCCCc1ccccc1` (stereo not given), the TGI in assay [8], in assay [9], in assay [1], in assay [2], in [3] and in assay [4] was greater than 100 µM each time. Also, the TGI in assay [5], in [6] and in assay [7] was greater than 100 µM in each case.
With `O=C(O)c1ccccc1C1c2ccccc2Oc2ccccc21`, the TGI in assay [8] is greater than 100 µM; in assay [9], greater than 100 µM; in assay [10], greater than 100 µM; in assay [1], greater than 100 µM; in [11], 77.5 µM; in assay [2], greater than 100 µM. The TGI in [3], in assay [4], in [5] and in assay [7] was greater than 100 µM throughout.
As for `O=[Se](O)O`, the TGI in assay [8] was 26.8 µM; in [9], greater than 22 µM; in assay [10], 7.36 µM; in [1] it was 7.63 µM; in [3] it was greater than 54.9 µM; in [4] it was 7.35 µM. Also, the TGI in [5] is 15.7 µM; in assay [6], greater than 100 µM; in [7] it was 8.83 µM.
